Assay results taken from ChEMBL document CHEMBL1201862, “PubChem BioAssay data set” (2004).
Calls of active or inactive are those of the source.

Tests used:
[1] = molecular target: T1, Short transient receptor potential channel 4 (Mus musculus, UniProt Q9QUQ5); assay: calcium entry via TRPC4 opening agents – cell-based, HEK293 TRPC4/mu-opioid, Fluo-4 calcium, dose response (AID 434937); type: functional
T1 sequence (Q9QUQ5 whole entry): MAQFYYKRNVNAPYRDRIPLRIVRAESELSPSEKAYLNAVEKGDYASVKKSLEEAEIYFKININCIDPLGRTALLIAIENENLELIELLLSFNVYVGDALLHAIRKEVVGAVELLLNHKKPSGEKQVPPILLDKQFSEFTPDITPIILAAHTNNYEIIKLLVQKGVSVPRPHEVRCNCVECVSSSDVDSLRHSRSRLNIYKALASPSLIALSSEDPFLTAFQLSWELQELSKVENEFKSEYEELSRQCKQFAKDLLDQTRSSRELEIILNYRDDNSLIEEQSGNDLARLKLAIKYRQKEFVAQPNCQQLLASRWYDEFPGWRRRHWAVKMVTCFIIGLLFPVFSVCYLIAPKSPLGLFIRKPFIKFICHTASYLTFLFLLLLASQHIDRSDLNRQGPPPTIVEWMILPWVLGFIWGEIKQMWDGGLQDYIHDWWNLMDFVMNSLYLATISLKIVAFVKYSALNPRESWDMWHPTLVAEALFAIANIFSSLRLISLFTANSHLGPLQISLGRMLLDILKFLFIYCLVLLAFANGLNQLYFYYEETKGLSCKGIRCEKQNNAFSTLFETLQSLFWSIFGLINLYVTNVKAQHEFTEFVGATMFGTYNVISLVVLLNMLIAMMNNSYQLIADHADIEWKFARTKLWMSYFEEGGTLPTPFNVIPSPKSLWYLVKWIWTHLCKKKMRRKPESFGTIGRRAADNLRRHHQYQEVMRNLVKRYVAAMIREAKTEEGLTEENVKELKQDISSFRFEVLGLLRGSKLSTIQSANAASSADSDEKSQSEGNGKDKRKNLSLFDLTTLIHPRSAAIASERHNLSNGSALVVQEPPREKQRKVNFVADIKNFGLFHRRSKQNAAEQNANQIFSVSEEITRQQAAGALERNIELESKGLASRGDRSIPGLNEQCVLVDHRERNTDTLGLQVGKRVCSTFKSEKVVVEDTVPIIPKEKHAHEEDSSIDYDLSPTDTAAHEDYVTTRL

[2] = molecular target: Cytochrome P450 3A4 (Homo sapiens, UniProt P08684); conditions: Potency;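 note: confirmatory qHTS run detecting inhibitors and substrates of CYP3A4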
[3] = molecular target: T2, Ubiquitin-conjugating enzyme E2 N (Homo sapiens, UniProt P61088); type: functional;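 note: Dose-response confirmation in a TR-FRET assay detecting UBC13-driven polyubiquitin chain formation, inhibition measured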
T2 sequence (P61088 whole entry): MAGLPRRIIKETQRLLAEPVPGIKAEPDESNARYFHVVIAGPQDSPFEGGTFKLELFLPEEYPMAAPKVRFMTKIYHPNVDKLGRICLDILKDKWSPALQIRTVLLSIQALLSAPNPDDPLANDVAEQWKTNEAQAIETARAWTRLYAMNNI

[4] = Luminescence Cell-Based Dose Confirmation HTS to Identify Activators of 5'UTR Stem-Loop Driven Alpha-Synuclein mRNA Translation in H4 Neuroglioblastoma Cells. [Related pubchem assays: 1829 (Project Summary), 1814 (Primary HTS)]; type: functional
[5] = Luminescence Cell-Based Dose Response HTS to Identify Activators of Luciferase Translation or Activity in H4 […] Cells. [Related pubchem assays: 1829 (Project Summary), 1814 (Primary HTS)]; type: functional
[6] = test system: H4; assay: Luminescence Cell-Based Dose Response HTS to Identify Activators of 5'UTR Stem-Loop Driven Prion Protein mRNA Translation in H4 Neuroglioblastoma Cells. [Related pubchem assays: 1829 (Project Summary), 1814 (Primary HTS)]; type: functional; conditions: Homo sapiens
[7] = molecular target: T3, Fatty acid synthase (Homo sapiens, UniProt P49327); assay: inhibition of human FAS-TE enzyme activity – biochemical, endpoint fluorescence intensity, uHTS hits, dose response (AID 624327); type: functional;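 note: fluorescence from hydrolysis of an O-methyl fluorescein acyl ester substrate by the enzyme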
[8] = molecular target: T3, Fatty acid synthase; assay: inhibition of human FAS-TE enzyme activity – biochemical, kinetic fluorescence intensity, dose response (AID 624326); type: functional;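 note: rate of fluorescence rise from hydrolysis of a fluorogenic O-methyl fluorescein ester substrate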
[9] = reduction of Shn3 3'UTR-driven luciferase in osteoblasts – cell-based, Clone20 osteoblasts, firefly luciferase, cherry-picked, dose response (AID 624132); type: functional;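 note: firefly luciferase luminescence from reporter carrying the Shn3 3'UTR in osteoblasts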
[10] = loss of viability in HepG2 cells – cell-based, CellTiter-Glo, cherry-picked, cytotoxicity control for Shn3 inhibitor project, dose response (AID 624134); type: functional
[11] = non-specific 3'UTR reporter inhibition in Clone20-Shn3RL – cell-based, Renilla luciferase, cherry-picked, counter-screen for Shn3 inhibitor project, dose response (AID 624133); type: functional
[12] = viability of uninfected HEp-2 cells – cell-based, HTS, cytotoxicity control for RSV inhibitor project, dose response (AID 2410); type: functional; conditions: human respiratory syncytial virus
[13] = Trypanosoma cruzi growth suppression in host cells – NIH3T3 host cells, beta-gal luminescence, confirmation (AID 2044); type: functional, cell-based;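 note: intracellular parasites grown in NIH/3T3 mouse fibroblasts as host cells; luminescent beta-galactosidase reporter signal from transgenic T. cruzi replicating inside host cells; inhibitors lower the luminescence signal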
[14] = NIH3T3 cell viability loss – ATP luminescence, mouse fibroblasts, counter-screen, dose response (AID 2010); type: functional, cell-based;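 note: cells exposed to compound for about 90 hours before reading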
[15] = molecular target: T4, Calpain-2 catalytic subunit (Sus scrofa, UniProt P43367); assay: m-calpain protease blockers, concentration series – biochemical, fluorogenic peptide substrate, dose response (AID 1420); type: functional
T4 sequence (P43367 whole entry): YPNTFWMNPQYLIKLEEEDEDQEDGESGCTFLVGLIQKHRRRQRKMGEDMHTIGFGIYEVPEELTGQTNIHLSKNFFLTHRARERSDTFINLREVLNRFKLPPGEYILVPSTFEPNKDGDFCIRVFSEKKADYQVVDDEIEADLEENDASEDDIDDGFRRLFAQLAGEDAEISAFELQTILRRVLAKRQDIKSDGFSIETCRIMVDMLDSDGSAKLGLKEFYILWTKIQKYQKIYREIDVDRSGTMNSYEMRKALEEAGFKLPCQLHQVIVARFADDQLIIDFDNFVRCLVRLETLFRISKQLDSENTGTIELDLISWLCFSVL

[16] = molecular target: Luciferin 4-monooxygenase (Photinus pyralis, UniProt P08659); assay: inhibition of purified Photinus pyralis luciferase – biochemical, luminescence, dose response (AID 1891)
[17] = Luminescence Cell-Based Dose Confirmation HTS to Identify Inhibitors of Platelet Dense Granule Release. [Related pubchem assays: 1663 (Primary HTS), 1678 (Summary of Project)]; type: functional
[18] = molecular target: Paired box protein Pax-8 (Homo sapiens, UniProt Q06710); assay: PAX8 transcriptional activity inhibition in RMG-I – RMG-I cells, luciferase, cherry-pick, dose response (AID 687027); type: functional, cell-based;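 note: luciferase reporter driven by Pax8 target thyroperoxidase promoter measured by SteadyGlo luminescence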
Sequence of Paired box protein Pax-8 (Q06710 whole entry): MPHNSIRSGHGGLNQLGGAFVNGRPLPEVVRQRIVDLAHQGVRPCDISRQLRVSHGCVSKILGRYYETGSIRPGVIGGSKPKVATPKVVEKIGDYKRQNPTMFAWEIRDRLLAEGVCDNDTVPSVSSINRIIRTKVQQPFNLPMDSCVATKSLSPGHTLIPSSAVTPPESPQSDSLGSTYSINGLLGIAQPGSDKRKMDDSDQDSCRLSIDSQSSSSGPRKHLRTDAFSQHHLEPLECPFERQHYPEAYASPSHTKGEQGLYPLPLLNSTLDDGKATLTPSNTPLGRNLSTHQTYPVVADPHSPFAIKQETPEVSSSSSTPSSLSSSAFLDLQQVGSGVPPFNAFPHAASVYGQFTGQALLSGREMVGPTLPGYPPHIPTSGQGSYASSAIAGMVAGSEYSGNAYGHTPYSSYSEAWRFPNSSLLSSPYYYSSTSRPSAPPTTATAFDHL

Sequence of Cytochrome P450 3A4 (P08684 whole entry): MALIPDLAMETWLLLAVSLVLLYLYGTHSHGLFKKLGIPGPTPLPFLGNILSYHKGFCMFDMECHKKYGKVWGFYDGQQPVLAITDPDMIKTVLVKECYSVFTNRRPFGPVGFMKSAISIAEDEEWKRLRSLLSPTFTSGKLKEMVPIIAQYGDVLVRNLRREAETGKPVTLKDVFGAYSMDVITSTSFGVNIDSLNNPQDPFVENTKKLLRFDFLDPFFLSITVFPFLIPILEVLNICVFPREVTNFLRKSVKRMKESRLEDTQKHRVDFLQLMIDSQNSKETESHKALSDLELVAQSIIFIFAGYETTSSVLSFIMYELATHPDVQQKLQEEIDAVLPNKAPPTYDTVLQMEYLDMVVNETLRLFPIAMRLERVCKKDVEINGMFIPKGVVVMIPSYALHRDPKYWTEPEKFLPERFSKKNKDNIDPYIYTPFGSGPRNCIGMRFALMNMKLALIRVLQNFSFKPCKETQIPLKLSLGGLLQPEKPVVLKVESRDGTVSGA
T3 sequence (P49327 whole entry): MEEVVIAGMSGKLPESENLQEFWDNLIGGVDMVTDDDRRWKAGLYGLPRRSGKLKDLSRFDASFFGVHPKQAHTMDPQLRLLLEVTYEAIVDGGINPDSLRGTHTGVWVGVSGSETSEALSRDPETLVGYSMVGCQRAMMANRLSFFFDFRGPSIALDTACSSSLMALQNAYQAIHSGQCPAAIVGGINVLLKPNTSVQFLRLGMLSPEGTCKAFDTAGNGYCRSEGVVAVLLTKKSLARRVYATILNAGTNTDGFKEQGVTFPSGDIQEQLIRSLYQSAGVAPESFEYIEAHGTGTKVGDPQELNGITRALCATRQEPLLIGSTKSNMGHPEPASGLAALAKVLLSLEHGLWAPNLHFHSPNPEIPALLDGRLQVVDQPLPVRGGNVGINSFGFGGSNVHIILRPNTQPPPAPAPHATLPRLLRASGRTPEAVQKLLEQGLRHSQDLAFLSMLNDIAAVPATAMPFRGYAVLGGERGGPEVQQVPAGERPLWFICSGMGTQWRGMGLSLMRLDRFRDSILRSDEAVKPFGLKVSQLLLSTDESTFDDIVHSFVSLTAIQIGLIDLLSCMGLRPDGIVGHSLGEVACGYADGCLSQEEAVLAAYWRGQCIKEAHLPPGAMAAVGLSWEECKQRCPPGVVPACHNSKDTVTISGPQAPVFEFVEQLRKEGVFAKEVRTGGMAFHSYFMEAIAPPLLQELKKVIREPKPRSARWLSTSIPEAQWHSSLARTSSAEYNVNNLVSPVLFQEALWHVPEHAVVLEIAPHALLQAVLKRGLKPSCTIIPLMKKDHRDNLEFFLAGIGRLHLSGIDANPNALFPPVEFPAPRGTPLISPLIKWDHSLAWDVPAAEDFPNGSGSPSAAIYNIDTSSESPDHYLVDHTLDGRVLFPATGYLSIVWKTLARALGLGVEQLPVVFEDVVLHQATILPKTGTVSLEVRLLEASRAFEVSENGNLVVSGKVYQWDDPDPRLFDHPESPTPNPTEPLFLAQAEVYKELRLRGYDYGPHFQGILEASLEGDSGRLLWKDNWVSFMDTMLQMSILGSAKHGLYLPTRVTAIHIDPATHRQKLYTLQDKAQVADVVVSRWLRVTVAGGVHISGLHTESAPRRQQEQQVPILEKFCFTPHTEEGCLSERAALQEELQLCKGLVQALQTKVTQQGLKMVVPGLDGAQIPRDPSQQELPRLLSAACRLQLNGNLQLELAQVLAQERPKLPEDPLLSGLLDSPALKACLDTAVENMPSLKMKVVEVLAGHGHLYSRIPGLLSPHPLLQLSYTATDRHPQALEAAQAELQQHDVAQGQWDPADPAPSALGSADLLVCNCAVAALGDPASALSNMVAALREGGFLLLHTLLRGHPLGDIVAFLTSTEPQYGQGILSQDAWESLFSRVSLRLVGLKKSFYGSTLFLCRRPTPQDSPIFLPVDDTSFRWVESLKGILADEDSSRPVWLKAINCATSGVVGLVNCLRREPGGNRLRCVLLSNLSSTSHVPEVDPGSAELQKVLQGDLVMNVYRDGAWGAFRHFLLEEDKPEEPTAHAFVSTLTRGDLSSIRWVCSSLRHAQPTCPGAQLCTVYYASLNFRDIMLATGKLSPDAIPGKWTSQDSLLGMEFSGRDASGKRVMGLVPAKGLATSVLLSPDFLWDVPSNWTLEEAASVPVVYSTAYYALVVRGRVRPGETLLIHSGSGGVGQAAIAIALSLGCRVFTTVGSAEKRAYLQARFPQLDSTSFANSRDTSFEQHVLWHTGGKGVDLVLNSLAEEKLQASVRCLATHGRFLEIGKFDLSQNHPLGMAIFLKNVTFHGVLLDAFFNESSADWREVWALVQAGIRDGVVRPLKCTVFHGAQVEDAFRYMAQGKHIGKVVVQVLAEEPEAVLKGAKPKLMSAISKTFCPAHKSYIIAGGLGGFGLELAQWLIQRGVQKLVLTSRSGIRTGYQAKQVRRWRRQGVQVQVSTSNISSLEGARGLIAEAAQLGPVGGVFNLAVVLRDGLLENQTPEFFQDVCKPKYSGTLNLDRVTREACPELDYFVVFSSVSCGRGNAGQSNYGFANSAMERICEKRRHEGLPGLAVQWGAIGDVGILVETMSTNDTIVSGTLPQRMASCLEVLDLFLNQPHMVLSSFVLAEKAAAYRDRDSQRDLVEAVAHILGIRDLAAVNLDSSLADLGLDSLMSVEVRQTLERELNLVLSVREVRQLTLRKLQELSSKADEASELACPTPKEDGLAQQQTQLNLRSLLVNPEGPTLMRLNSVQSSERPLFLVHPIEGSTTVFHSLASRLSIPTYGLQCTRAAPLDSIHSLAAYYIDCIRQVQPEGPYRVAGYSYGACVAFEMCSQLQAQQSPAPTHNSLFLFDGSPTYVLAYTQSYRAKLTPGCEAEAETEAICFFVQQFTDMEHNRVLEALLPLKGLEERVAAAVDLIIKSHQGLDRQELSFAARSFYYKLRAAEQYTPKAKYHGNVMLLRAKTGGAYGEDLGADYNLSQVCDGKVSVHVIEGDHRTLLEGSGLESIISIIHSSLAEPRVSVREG
Sequence of Luciferin 4-monooxygenase (P08659 whole entry): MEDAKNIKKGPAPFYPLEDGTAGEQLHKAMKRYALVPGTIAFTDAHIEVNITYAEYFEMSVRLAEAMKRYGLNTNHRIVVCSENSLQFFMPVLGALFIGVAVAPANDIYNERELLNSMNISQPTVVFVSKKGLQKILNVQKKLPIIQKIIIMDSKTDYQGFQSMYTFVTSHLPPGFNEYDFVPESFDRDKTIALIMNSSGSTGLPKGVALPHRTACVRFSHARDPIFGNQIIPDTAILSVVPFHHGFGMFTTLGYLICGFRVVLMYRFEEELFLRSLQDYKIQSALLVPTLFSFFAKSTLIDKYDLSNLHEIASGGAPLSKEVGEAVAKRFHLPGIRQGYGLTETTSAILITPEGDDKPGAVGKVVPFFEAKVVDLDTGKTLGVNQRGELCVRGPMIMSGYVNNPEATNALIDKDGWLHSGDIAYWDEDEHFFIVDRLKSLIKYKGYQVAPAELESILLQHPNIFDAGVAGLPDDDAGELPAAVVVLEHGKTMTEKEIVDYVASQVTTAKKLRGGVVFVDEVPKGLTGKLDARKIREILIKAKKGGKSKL

CNCCc1n[nH]c(N)n1
EC50 [1]: 0.0667 µM (active)

CC(=O)N1[C@H](C)C=C[C@]1(Cc1ccccc1)C(=O)O
AC50 [2]: 31.6 µM (inconclusive)

Oc1ccc2c(c1)OC(c1ccc(O)c(O)c1)C(O)C2 (centres undefined)
AC50 [2]: 25.1 µM (inconclusive)

COc1ccc(C(CNC(=O)c2ccccc2SC)N(C)C)cc1 (centres undefined)
EC50 [1]: 0.473 µM (active)

CSCCC(NC(=O)c1ccc(Cl)cc1Cl)C(=O)NNC(=O)c1csc(N2CCOCC2)n1 (centres undefined)
IC50 [3]: > 20 µM (inactive)

O=C1c2sc3nc4ccccc4n3c2C(=O)N1c1ccccc1Cl
EC50 [4]: > 120 µM (not active) | EC50 [5]: 13.8 µM (active) | EC50 [6]: > 120 µM (not active)

COc1ccc(-c2cc(=O)c3c(O)cc(O)c(-c4cc(-c5cc(=O)c6c(O)cc(O)cc6o5)ccc4OC)c3o2)cc1 [ISOGINKGETIN]
AC50 [2]: 3.98 µM (inconclusive)

CC1(C)CC(=O)C2=CNc3ccccc3N=C2C1
EC50 [4]: > 120 µM (not active) | EC50 [5]: > 120 µM (not active) | EC50 [6]: > 120 µM (not active)

COc1ccc(C(CNC(=O)Cc2ccc(Cl)c(Cl)c2)N(C)C)cc1 (centres undefined)
EC50 [1]: 0.299 µM (active)

Nc1ccc2c(c1)C(=O)Cc1ccccc1S2
IC50 [3]: > 20 µM (inactive)

Cn1c(=O)c2c(nc(SCCN3CCOCC3)n2Cc2ccc(F)cc2)n(C)c1=O
EC50 [4]: 0.262 µM (active) | EC50 [5]: 5.27 µM (active) | EC50 [6]: > 120 µM (not active)

O=C(CCNC(=O)c1ccc([N+](=O)[O-])cc1)NCc1ccccc1
IC50 [7]: 11.3 µM (active) | IC50 [8]: 10.4 µM (active)

COc1ccc(C[C@H]2COC(=O)[C@@H]2Cc2ccc(OC3OC(CO)C(O)C(O)C3O)c(OC)c2)cc1OC (some centres undefined)
AC50 [9]: 4.43 µM (active) | AC50 [10]: 48.3 µM (active) | AC50 [11]: 15.5 µM (active)

Cc1ccc2nc(N=C(N)NS(=O)(=O)c3ccc([N+](=O)[O-])cc3)nc(C)c2c1
CC50 [12]: 35.2 µM (active) | EC50 [13]: 0.199 µM (active) | EC50 [14]: > 60 µM (not active) | IC50 [7]: 12.2 µM (active) | IC50 [8]: 14.5 µM (active)

COC(=O)[C@]1(C)CC[C@@]2(C)CC[C@@]3(C)C4=CC=C5C(=CC(=O)C(O)=C5C)[C@@]4(C)CC[C@@]3(C)C2C1 (some centres undefined)
AC50 [2]: 31.6 µM (inconclusive)

C=CCn1c(=O)c(C(=O)Nc2ccccc2S(N)(=O)=O)c(O)c2ccccc21
IC50 [3]: > 20 µM (inactive)

CCCCN=C(S)Nc1cc([N+](=O)[O-])ccc1C
IC50 [7]: 9.4 µM (active) | IC50 [8]: 14.1 µM (active)

Nc1c(-c2ccc(Cl)cc2)nnn1-c1ccccc1
EC50 [4]: 0.217 µM (active) | EC50 [5]: 0.135 µM (inconclusive) | EC50 [6]: 13.2 µM (active)

C=CCSSCC=C
AC50 [2]: 25.1 µM (inconclusive)

CCCCN(CC)CCNC(=O)c1cc2cc3ccc(Cl)cc3nc2o1
EC50 [1]: 0.596 µM (active)

COc1ccc(S(=O)(=O)N2CCC(NC(=O)OCc3c(Cl)cccc3Cl)CC2)cc1
IC50 [15]: 7.91 µM (not active)

CCC(C)(C)C1CCc2n[nH]c(C(=O)NCCCNC(=O)OC(C)(C)C)c2C1 (centres undefined)
IC50 [7]: 0.524 µM (active) | IC50 [8]: 24.3 µM (inactive)

COC(=O)N1CC=CC1(C)C(=O)NCc1ccc(C)o1 (centres undefined)
AC50 [2]: 15.8 µM (inconclusive)

CN(Cc1cccc(Cl)c1Cl)C(=O)c1cccc(S(=O)(=O)N2CCN(Cc3ccccc3)CC2)c1
AC50 [9]: 3.38 µM (active) | AC50 [10]: 55.6 µM (active) | AC50 [11]: 17.7 µM (active)

Cc1ccc(CNC(=O)C2CCCN(Cc3cnn(-c4ccccc4)c3-n3cccc3)C2)cc1 (centres undefined)
EC50 [1]: 4.73 µM (active)

Fc1cccc(Cn2cc(C(=S)N3CCCCC3)c3ccccc32)c1
IC50 [15]: 2.86 µM (not active)

CCCN(CCC)C(=O)CC(c1ccccc1)c1ccc(C)cc1O (centres undefined)
IC50 [15]: > 50 µM (not active)

Cc1ccc(NC(=O)c2ccc(S(=O)(=O)NCc3ccco3)cc2)nc1
EC50 [4]: 15.2 µM (active) | EC50 [5]: 11.1 µM (active) | EC50 [6]: 49.7 µM (active)

COc1cccc(NC(=O)c2nnn(CCc3ccccc3)c2N)c1
EC50 [4]: 6.28 µM (active) | EC50 [5]: 6.24 µM (active) | EC50 [6]: 4.53 µM (active)

CN(C)C(CNc1ncnc2sc3c(c12)CCCC3)c1ccco1 (centres undefined)
EC50 [1]: 3.35 µM (active)

COc1cccc(C2=CC(c3ccc(OC)c(OC)c3)NC(S)=N2)c1 (centres undefined)
IC50 [15]: 2.81 µM (not active)

NC(=O)c1c(NC(=O)C(=O)NCCCN2CCOCC2)sc2c1CCCC2
IC50 [3]: > 20 µM (inactive)

O=C(CSc1ccccn1)N/N=C/c1c[nH]c2ccccc12
IC50 [15]: > 50 µM (not active)

CC(=O)c1ccc(NC(=O)CCc2nnc3ccc(NCc4ccco4)nn23)cc1
EC50 [4]: 6.27 µM (active) | EC50 [5]: 11.2 µM (active) | EC50 [6]: > 120 µM (not active) | EC50 [16]: > 112 µM (not active) | EC50 [17]: > 112 µM (not active)

O=C(COc1ccc(Br)cc1CNC1CCCC1)Nc1ccccc1
EC50 [1]: 5.96 µM (active)

COc1ccc(OC)c(NC(=O)CSc2nc3ccccc3c3nc4ccccc4n23)c1
IC50 [15]: > 50 µM (not active)

CCCCCCC1=Cc2cc(OC)c(OC)cc2C(C2(C(=O)OCC)CCCC2=O)O1 (centres undefined)
AC50 [2]: 3.16 µM (inconclusive)

CN(C)S(=O)(=O)c1ccc2c(c1)C(=O)c1cc(S(=O)(=O)N(C)C)ccc1CC2
IC50 [7]: 0.176 µM (active) | IC50 [8]: 0.166 µM (active)

COc1ccccc1N1CC(C(=O)Nc2cc(C(F)(F)F)ccc2N2CCCC2)CC1=O (centres undefined)
IC50 [7]: 6.81 µM (active) | IC50 [8]: 7.17 µM (active)

CSCCC(c1nnnn1Cc1ccccc1)N1CCC(n2c(O)nc3ccccc32)CC1 (centres undefined)
AC50 [18]: 0.538 µM (active)
